Laboratory results: US20170312221A1, “PHARMACEUTICAL PREPARATION AND METHOD OF ITS PRODUCTION AND USE” (priority 2014, published 2017)

How the values were obtained:
Experiment in all cases: minimum inhibitory concentration
Type in all cases: cell-based
[1] = tested on: Escherichia coli NTCT 10418
[2] = tested on: Streptococcus pyogenes 421
Proteus vulgaris X = tested on: Proteus vulgaris X
[3] = tested on: Staphylococcus aureus ATCC 25923

## C/C(=C\C(=O)OCCCCCCCCC(=O)O)C[C@@H]1OC[C@H](C[C@@H]2O[C@H]2[C@@H](C)[C@H](C)O)[C@@H](O)[C@H]1O [Mupirocin]
[1]
  Minimum inhibitory concentration (MIC) Escherichia coli NTCT 10418: 128
[2]
  Minimum inhibitory concentration (MIC) Streptococcus pyogenes 421: 0.12
Proteus vulgaris X
  Minimum inhibitory concentration (MIC) Proteus vulgaris X: 64
[3]
  Minimum inhibitory concentration (MIC) Staphylococcus aureus ATCC 25923: 0.25
